Experimental data as given in patent US9958439B2, “Carbohydrate detection” (RICHTER LIFE SCIENCE DEVELOPMENT AB, priority 2012, dated 2018).
Like-named read-outs stand apart in the source and are kept apart here.

Key:
[1] = for RFU change (Correlation analysis) / RFU change (Signal deviation with increasing [Carbohydrate]) / λmax change: 3 μM probe; for RFU change (Correlation analysis): probe-specific excitation λ, emission 545 nm; for RFU change (Signal deviation with increasing [Carbohydrate]) / λmax change: spectral analysis, Excitation 300-500, Emission 545; for carbohydrate can be detected and/or differentiated by the LCO: conclusion from change in signal magnitude and/or shift in λmax; for Gradient Parameters (gradient of regression line) / Linear relationship / Quality of Gradient: linear regression
Description: (§1) The excitation spectrum of the probe was analyzed for wavelengths 300-500 nm with emission read at 545 nm.
(§2) 3 μM of each probe was applied to serial two fold dilutions of the insoluble carbohydrate. Respective probes were excited at wavelengths unique to each probe (specified in figure), and emission was read at 545 nm.
(§3) Serial dilutions of carbohydrate suspensions were prepared in dH2O. Concentrations ranging from 10 to 0.039 mg/ml was used for β-1,3-glucan, cellulose and chitin, whereas 5 to 0.019 mg/ml was used for sodium alginate, glucose, amylose, glycogen, cellulobiose, heparin, chondroitin sulfate A. 3 μM of each LCO probe was added to 1 ml aliquots of each concentration of carbohydrate, after which 100 μl was dispensed in triplicates into 96 well plates. Excitation spectra were collected by exciting the sample from 300 to 500 nm and detecting emission at 545 nm. Detection of carbohydrate is concluded when there is a reproducible change in λmax and/or RFU intensity with reference to the negative control. Data from three concentrations, as well as the negative control are shown for each carbohydrate as specified in respective figure.
(§4) The excitation wavelength (emission detected at 545 nm) selected for each LCO is either (1) the λmax, or (2) the excitation wavelength which suffers the lowest background. A linear regression analysis is performed to determine the relationship between the carbohydrate concentration and RFU.

[2] = Description: 3 μM of each probe was applied to serial two fold dilutions of the insoluble carbohydrate of which the concentration shown here are 5 mg/ml (_.), 2.5 mg/ml (. . . ), 1.25 mg/ml (__) and 0 mg/ml (_). The excitation spectrum of the probe was analyzed for wavelengths 300-500 nm with emission read at 545 nm.
as §2, §3, §4

[3] = remark: listed apart in the source
Description: (§5) 3 μM of each probe was applied to serial two fold dilutions of the carbohydrate of which the concentration shown here are 5 mg/ml (_.), 2.5 mg/ml (. . . ) 1.25 mg/ml (__) and 0 mg/ml (_). The excitation spectrum of the probe was analyzed for wavelengths 300-500 nm with emission read at 545 nm.
3 μM of each probe was applied to serial two fold dilutions of the carbohydrate. Respective probes were excited at wavelengths unique to each probe (specified in figure), and emission was read at 545 nm. […] The mean increase in signal (_) with [Glucose] and the fitted regression line (__) is shown.
as §3, §4

[4] = for RFU change (Correlation analysis): probe-specific excitation λ, emission 545 nm
Description: as §5
(§6) 3 μM of each probe was applied to serial two fold dilutions of the carbohydrate. Respective probes were excited at wavelengths unique to each probe (specified in figure), and emission was read at 545 nm.
as §3, §4

[5] = for RFU change (Correlation analysis) / RFU change (Signal deviation with increasing [Carbohydrate]): 3 μM probe; for RFU change (Correlation analysis): probe-specific excitation λ, emission 545 nm; for RFU change (Signal deviation with increasing [Carbohydrate]): spectral analysis, Excitation 300-500, Emission 545; for Gradient Parameters (gradient of regression line) / Linear relationship / Quality of Gradient: linear regression
Description: 3 μM of each probe was applied to serial two fold dilutions of the carbohydrate of which the concentration shown here are 5 mg/ml (_.), 2.5 mg/ml (. . . ), 1.25 mg/ml (__) and 0 mg/ml (_). The excitation spectrum of the probe was analyzed for wavelengths 300-500 nm with emission read at 545 nm.
as §6, §3, §4

[6] = remark: listed apart in the source
Description: as §1, §6, §3, §4

[7] = β-1,3-glucan concentration vs RFU
[8] = sodium alginate concentration vs RFU, linear regression
[9] = glucose concentration vs RFU, linear regression
[10] = Cellulobiose 5-0.019 mg/ml, 3 μM probe, spectral analysis, Excitation 300-500, Emission 545
[11] = amylose concentration vs RFU, linear regression
[12] = Chondroitin Sulfate A 5-0.019 mg/ml, 3 μM probe, spectral analysis, Excitation 300-500, Emission 545
[13] = Chondroitin Sulfate A concentration vs RFU, linear regression

NCCCC[C@H](NC(=O)Cc1cc(-c2cccs2)sc1-c1ccc(-c2sc(-c3cccs3)cc2CC(=O)N[C@@H](CCCCN)C(=O)[O-])s1)C(=O)[O-].[Na+].[Na+] [pHTA-Lys, penta Hydrogen Thiophene Acetic acid Lysine]
RFU change (Correlation analysis) ([1]; Cellulose 10-[…]): Increase | RFU change (Signal deviation with increasing [Carbohydrate]) ([1]; Cellulose 10-[…]): Increase | λmax change ([1]; Cellulose 10-[…]): Redshift | carbohydrate can be detected and/or differentiated by the LCO ([1]; Cellulose): can be detected and/or differentiated | RFU change (Correlation analysis) ([1]; Chitin 10-[…]): Increases | RFU change (Signal deviation with increasing [Carbohydrate]) ([1]; Chitin 10-[…]): Increases | λmax change ([1]; Chitin 10-[…]): Redshift | carbohydrate can be detected and/or differentiated by the LCO ([1]; Chitin): can be detected and/or differentiated | Gradient Parameters (gradient of regression line) ([1]; cellulose concentration vs RFU): 291.8 ± 46.6 | Linear relationship ([1]; cellulose concentration vs RFU): Significant | Quality of Gradient ([1]; cellulose concentration vs RFU): Positive | Gradient Parameters (gradient of regression line) ([1]; chitin concentration vs RFU): 273.8 ± 46.2 | Linear relationship ([1]; chitin concentration vs RFU): Significant | Quality of Gradient ([1]; chitin concentration vs RFU): Positive | Sensitivity ([1]; to cellulose): Yes | Sensitivity ([1]; to chitin): Yes | Sensitivity ([1]; to β-1,3-glucan): Yes | carbohydrate can be detected and/or differentiated by the LCO ([1]; β-1,3-Glucan): can be detected and/or differentiated | RFU change (Correlation analysis) ([1]; β-1,3-glucan 10-[…]): Increase | RFU change (Signal deviation with increasing [Carbohydrate]) ([1]; β-1,3-glucan 10-[…]): Decrease | Gradient Parameters (gradient of regression line) [1, 7]: 107.9 ± 16.4 | Quality of Gradient [1, 7]: Positive | RFU change (Correlation analysis) ([2]; Sodium alginate 5-0.019 mg/ml, 3 μM probe, probe-specific excitation λ, emission 545 nm): Increases | RFU change (Signal deviation with increasing [Carbohydrate]) ([2]; Sodium alginate 5-0.019 mg/ml, 3 μM probe, spectral analysis, Excitation 300-500, Emission 545): Increases | carbohydrate can be detected and/or differentiated by the LCO ([2]; Sodium alginate, conclusion from change in signal magnitude and/or shift in λmax): can be detected and/or differentiated | Gradient Parameters (gradient of regression line) [2, 8]: 55.4 ± 5.3 | Linear relationship [2, 8]: Significant | Quality of Gradient [2, 8]: Positive | Sensitivity ([2]; to sodium alginate): Yes | RFU change (Correlation analysis) ([3]; Glucose 5-0.019 mg/ml, 3 μM probe, probe-specific excitation λ, emission 545 nm): Unclear | RFU change (Signal deviation with increasing [Carbohydrate]) ([3]; Glucose 5-0.019 mg/ml, 3 μM probe, spectral analysis, Excitation 300-500, Emission 545): Unclear | Gradient Parameters (gradient of regression line) [3, 9]: 23.6 ± 13.7 | Quality of Gradient [3, 9]: Horizontal | Sensitivity ([3]; to glucose): No | RFU change (Correlation analysis) ([4]; Amylose 5-0.019 mg/ml, 3 μM probe): Increases | RFU change (Signal deviation with increasing [Carbohydrate]) ([4]; Amylose 5-0.019 mg/ml, 3 μM probe, spectral analysis, Excitation 300-500, Emission 545): Increases | carbohydrate can be detected and/or differentiated by the LCO ([4]; Amylose, conclusion from change in signal magnitude and/or shift in λmax): can be detected and/or differentiated | RFU change (Correlation analysis) ([4]; Cellulobiose 5-0.019 mg/ml, 3 μM probe): Unclear | RFU change (Signal deviation with increasing [Carbohydrate]) [4, 10]: Unclear | λmax change [4, 10]: No change | Gradient Parameters (gradient of regression line) [4, 11]: 47.7 ± 18.5 | Linear relationship [4, 11]: Significant | Quality of Gradient [4, 11]: Positive | Quality of Gradient ([4]; cellulobiose concentration vs RFU, linear regression): Horizontal | Sensitivity ([4]; to amylose): Yes | Sensitivity ([4]; to cellulobiose): No | RFU change (Correlation analysis) ([5]; Glycogen 5-0.019 mg/ml): Increases | RFU change (Signal deviation with increasing [Carbohydrate]) ([5]; Glycogen 5-0.019 mg/ml): Increases | carbohydrate can be detected and/or differentiated by the LCO ([5]; Glycogen, conclusion from change in signal magnitude and/or shift in λmax): can be detected and/or differentiated | RFU change (Correlation analysis) ([5]; Heparin 5-0.019 mg/ml): Increases | RFU change (Signal deviation with increasing [Carbohydrate]) ([5]; Heparin 5-0.019 mg/ml): Increases | Gradient Parameters (gradient of regression line) ([5]; glycogen concentration vs RFU): 43.6 ± 7.9 | Linear relationship ([5]; glycogen concentration vs RFU): Significant | Quality of Gradient ([5]; glycogen concentration vs RFU): Positive | Gradient Parameters (gradient of regression line) ([5]; heparin concentration vs RFU): 48.4 ± 18.2 | Linear relationship ([5]; heparin concentration vs RFU): Significant | Quality of Gradient ([5]; heparin concentration vs RFU): Positive | Sensitivity ([5]; to glycogen): Yes | Sensitivity ([5]; to heparin): Yes | RFU change (Correlation analysis) ([6]; Chondroitin Sulfate A 5-0.019 mg/ml, 3 μM probe, probe-specific excitation λ, emission 545 nm): Increases | RFU change (Signal deviation with increasing [Carbohydrate]) [6, 12]: Decreases | λmax change [6, 12]: No change | Gradient Parameters (gradient of regression line) [6, 13]: 194.8 ± 19.2 | Linear relationship [6, 13]: Significant | Quality of Gradient [6, 13]: Positive | carbohydrate can be detected and/or differentiated by the LCO ([6]; Chondroitin sulfate A, conclusion from change in signal magnitude and/or shift in λmax): can be detected and/or differentiated | Sensitivity ([6]; to Chondroitin Sulfate A): Yes
